{"source": "patent US20180049444A1", "about": "“XENORHABDUS SZENTIRMAII METABOLITES, TRANS-CINNAMIC ACID, AND ANALOGS THEREOF AS ENHANCERS OF FUNGICIDAL ACTIVITY” (priority 2016, published 2018)", "key": {"[1]": {"test_system": "Monilinia fructicola (brown rot)", "assay": "Synergy assessment of TCA and trans-Cinnamaldehyde with commercial fungicides, growth area on PDA after 4 days", "format": "cell-based", "settings": "FIG. 11", "excerpt": "Following the procedures above and those in Hazir et al (2017b, J. Invertebrate Path. 145: 1-8), synergy assessments were implemented to compare trans-Cinnamic acid to an exemplary analog, trans-Cinnamaldehyde. The target phytopathogen was Monilinia fructicola (brown rot). Treatment effects were compared by measuring vegetative growth of the phytopathogens in vitro when they were exposed to the fungicidal agents applied alone or in combination. Solutions of the fungicidal treatments were incorporated into potato dextrose agar (PDA) to achieve the desired concentrations, and autoclaved. Prior to autoclaving the PDA, the prescribed volume of distilled water was reduced to allow addition of the fungicide solutions. Controls consisted of PDA without any amendment or PDA with acetone only (the solvent used for TCA). Trans-Cinnamic acid and trans-Cinnamaldehyde were applied alone or with commercial fungicides […]® (extract of Reynoutria sachalinensis) or Serenade® (Bacillus subtilis). After 4 days the area of M. fructicola growth was determined. […] [table]"}, "Venturia effusa": {"test_system": "Venturia effusa", "assay": "Suppression of in vitro vegetative growth (colony area) on agar amended with 10% supernatant or TCA", "format": "cell-based", "settings": "V. effusa; FIG. 4; 7 days", "excerpt": "(§1) Treatment effects were compared by measuring in vitro vegetative growth of the phytopathogens V. carpophila and V. effusa when exposed to the same bacterial exudates evaluated above in the germination study. Solutions of the fungicidal treatments were incorporated into PDA and autoclaved. Prior to autoclaving the PDA, the prescribed volume of distilled water was reduced to allow addition of treatment suspensions. Controls consisted of PDA without any amendment or PDA with acetone only (the solvent for TCA). The media were vortexed when cooled to 40-42° C. and poured to Petri dishes.\n(§2) A 5 mm diameter mycelia plug from a fungal culture plate was transferred onto the center surface of each agar dish (Fang et al. 2011; Hazir et al. 2017a) and incubated at 25° C. Vegetative growth of the fungus was measured after 7 days. Growth was measured in two perpendicular directions to obtain the approximate area of the fungal mat."}, "Venturia carpophila [2]": {"test_system": "Venturia carpophila", "assay": "Suppression of in vitro vegetative growth (colony area) on agar amended with 10% supernatant or TCA", "format": "cell-based", "settings": "V. carpophila; FIG. 5; 7 days", "excerpt": "as §1, §2"}, "V. effusa": {"test_system": "V. effusa", "assay": "Suppression of spore germination in potato dextrose broth with 10% bacterial supernatant or TCA", "format": "cell-based, Venturia effusa", "experimental": "The spores of V. carpophila and V. effusa were used to determine the inhibitory effect of the bacterial supernatants on germination. Supernatants tested were from X. nematophila, X. cabanillasii, X. bovienii, X. szentirmaii, strain 17C+E, P. temperate, P. luminescens (VS) and P. luminescens (K-22). The conidia suspension (0.1 ml) of V. effusa or V. carpophila was added to 0.8 ml potato dextrose broth (PDB) in 2 ml eppendorf tubes containing 0.1 ml (10% v/v) bacterial supernatant. Controls were PDB alone and conidial suspension without supernatant. Because TCA derived from Photorhabdus spp. was identified as an active compound with significant antifungal activity (Bock et al. 2014), TCA was added (1.27 mg/ml) in all experiments for comparison as well. The stock solution of TCA (99% purity, Sigma, St. Louis, Mo.) was prepared with 12.7 g dissolved in 100 ml ethanol (96%). […] The tubes were incubated at 25° C. for 48 hours and the first 100 conidia were counted under the microscope (400×) to determine percentage spore germination (which was used to determine treatment effects). […] An inhibition rate was determined according to the formula: 100×[(the average percentage of spores germinated in the control−the average percentage of spores germinated in the treatment)/the average percentage of spores germinated in the control] […]"}, "Glomerella cingulata": {"test_system": "Glomerella cingulata", "assay": "Suppression of in vitro vegetative growth (colony area) on agar amended with 10% supernatant or TCA", "format": "cell-based", "settings": "G. cingulata; FIG. 2; 7 days"}, "Venturia carpophila [3]": {"test_system": "Venturia carpophila", "assay": "Suppression of spore germination in potato dextrose broth with 10% bacterial supernatant or TCA", "format": "cell-based", "settings": "V. carpophila", "experimental": "The spores of V. carpophila and V. effusa were used to determine the inhibitory effect of the bacterial supernatants on germination. Supernatants tested were from X. nematophila, X. cabanillasii, X. bovienii, X. szentirmaii, strain 17C+E, P. temperate, P. luminescens (VS) and P. luminescens (K-22). The conidia suspension (0.1 ml) of V. effusa or V. carpophila was added to 0.8 ml potato dextrose broth (PDB) in 2 ml eppendorf tubes containing 0.1 ml (10% v/v) bacterial supernatant. Controls were PDB alone and conidial suspension without supernatant. Because TCA derived from Photorhabdus spp. was identified as an active compound with significant antifungal activity (Bock et al. 2014), TCA was added (1.27 mg/ml) in all experiments for comparison as well. The stock solution of TCA (99% purity, Sigma, St. Louis, Mo.) was prepared with 12.7 g dissolved in 100 ml ethanol (96%). Each treatment was replicated three times, and the experiment was repeated once on a different date. The tubes were incubated at 25° C. for 48 hours and the first 100 conidia were counted under the microscope (400×) to determine percentage spore germination (which was used to determine treatment effects). […] An inhibition rate was determined according to the formula: 100×[(the average percentage of spores germinated in the control−the average percentage of spores germinated in the treatment)/the average percentage of spores germinated in the control] (Fang et al. 2011). Analysis of Variance (ANOVA) (SAS V9.3, SAS Institute Inc., Cary, N.C.) was also applied to the data for V. carpophila."}, "Monilinia fructicola": {"test_system": "Monilinia fructicola", "assay": "Suppression of in vitro vegetative growth (colony area) on agar amended with 10% supernatant or TCA", "format": "cell-based", "settings": "M. fructicola; FIG. 3; 7 days"}}, "data": [{"smiles": "O=C/C=C/c1ccccc1", "note": "[CA, trans-Cinnamaldehyde]", "values": [{"measurement": "Interaction (level of M. fructicola suppression) when combined with commercial fungicides such as Regalia and Serenade", "setting": "[1]", "value": "synergistic"}]}, {"smiles": "O=C(O)/C=C/c1ccccc1", "note": "[TCA, trans-Cinnamic acid]", "values": [{"measurement": "suppression of vegetative growth compared among treatments", "setting": "Venturia effusa", "value": "highest suppression"}, {"measurement": "suppression of vegetative growth compared among treatments", "setting": "Venturia carpophila [2]", "value": "most suppression"}, {"measurement": "percentage spore germination compared among treatments", "setting": "V. effusa", "value": "the least"}, {"measurement": "inhibition at 1270 µg/mL", "setting": "V. effusa; Venturia effusa, 10% v/v supernatant or TCA 1.27 mg/ml, 48 hours at 25° C., read-out: Inhibition rate of spore germination (%)", "value": 76.7, "unit": "%"}, {"measurement": "suppression of vegetative growth compared among treatments", "setting": "Glomerella cingulata", "value": "most suppression"}, {"measurement": "percentage spore germination", "setting": "Venturia carpophila [3]; 10% supernatant or TCA 1.27 mg/ml, 48 hours", "value": 8.66, "unit": "%"}, {"measurement": "level of suppression of spore germination compared among treatments", "setting": "Venturia carpophila [3]; FIG. 1", "value": "highest level of suppression"}, {"measurement": "inhibition at 1270 µg/mL", "setting": "Venturia carpophila [3]; Venturia carpophila, 10% v/v supernatant or TCA 1.27 mg/ml, 48 hours at 25° C., read-out: Inhibition rate of spore germination (%)", "value": 87.7, "unit": "%"}, {"measurement": "Interaction (level of M. fructicola suppression) when combined with commercial fungicides such as Regalia and Serenade", "setting": "[1]", "value": "synergistic"}, {"measurement": "suppression of vegetative growth compared among treatments", "setting": "Monilinia fructicola", "value": "greatest suppression"}]}]}
